Values of other authors, collected in US12357645B2, “Drug combination for treatment of gastric cancer” (priority 2023, dated 2025).

What was measured:
[1] = cited from earlier work
gastric cancer = conditions: by stimulating expression of p53 and p21 (waf1/cip1); cited from earlier work

CC(C)[C@]12O[C@H]1[C@@H]1O[C@]13[C@]1(O[C@H]1C[C@H]1C4=C(CC[C@@]13C)C(=O)OC4)[C@@H]2O [triptolide, reference compound]
aqueous solubility [1]: limited aqueous solubility
cell growth and apoptosis (gastric cancer): inhibit cell growth and induce apoptosis
